Earlier results, collected in patent US20180256462A1, “ALCOHOL-BASED SKIN SANITIZER HAVING MICROBICIDAL PROPERTIES” (DEB IP LIMITED, priority 2015, published 2018).
Where two headings read alike, the source gives them in different places.

Key:
Lactobacillus fermentum = conditions: live cells of Lactobacillus fermentum, flow cytometry
Staphylococcus aureus = conditions: low concentrations (0.5 to 2 mM), disk diffusion
Microsporum gypseum [1] = conditions: 10% in Vaseline petroleum jelly, topical daily for 3 weeks; for skin lesion scoring: first week of application; for histopathologic examination of skin tissues (hyperkeratosis, inflammatory cell infiltration): versus positive control
Microsporum gypseum [2] = tested on: Microsporum gypseum

SMILES | MIC (Microsporum gypseum [2]) | MIC (Microsporum gypseum [2]; positive control) [µg/mL] | sensitization of Escherichia coli to polymyxin B (Escherichia coli) | intracellular accumulation of ethidium bromide (Lactobacillus fermentum) | susceptibility of Staphylococcus aureus to ciprofloxacin, clindamycin, erythromycin, gentamicin, tetracycline, and vancomycin (Staphylococcus aureus) | hair culture test (Microsporum gypseum [1]) | skin lesion scoring (Microsporum gypseum [1]) | histopathologic examination of skin tissues (hyperkeratosis, inflammatory cell infiltration) (Microsporum gypseum [1])
CC(C)=CCCC(C)=CCCC(C)=CCO [farnesol] |  |  | sensitized Escherichia coli to polymyxin B | promoted the intracellular accumulation of the membrane-impermeant nucleic acid stain ethidium bromide |  |  |  | 
CC(C)=CCC[C@](C)(O)C1CC=C(C)CC1 (stereo partly drawn) [bisabolol] |  |  |  | promoted the intracellular accumulation of the membrane-impermeant nucleic acid stain ethidium bromide | enhanced the susceptibility of Staphylococcus aureus |  |  | 
CC(C)=CCC/C(C)=C/CC1CCCC1=O (stereo not drawn) [apritone] |  |  |  | promoted the intracellular accumulation of the membrane-impermeant nucleic acid stain ethidium bromide | enhanced the susceptibility of Staphylococcus aureus |  |  | 

Further lines, with some results ahead:

MIC (Microsporum gypseum [2]) | MIC (Microsporum gypseum [2]; positive control) [µg/mL] | SMILES | sensitization of Escherichia coli to polymyxin B (Escherichia coli) | intracellular accumulation of ethidium bromide (Lactobacillus fermentum) | susceptibility of Staphylococcus aureus to ciprofloxacin, clindamycin, erythromycin, gentamicin, tetracycline, and vancomycin (Staphylococcus aureus) | hair culture test (Microsporum gypseum [1]) | skin lesion scoring (Microsporum gypseum [1]) | histopathologic examination of skin tissues (hyperkeratosis, inflammatory cell infiltration) (Microsporum gypseum [1])
0.5-2% |  | C=CC(C)(O)CCC=C(C)CCC=C(C)C (mixture of isomers) [nerolidol, 3,7,11-trimethyl-1,6,10-dodecatrien-3-ol] | sensitized Escherichia coli to polymyxin B | promoted the intracellular accumulation of the membrane-impermeant nucleic acid stain ethidium bromide | enhanced the susceptibility of Staphylococcus aureus | improved the skin lesions infected by M. gypseum | clinically effective at improving the lesion during the first week of application | lower degree of hyperkeratosis and inflammatory cell infiltration than the positive control
 | 4 to 16 | Clc1ccc(COC(Cn2ccnc2)c2ccc(Cl)cc2Cl)cc1 (stereo not drawn) [econazole] |  |  |  |  |  | 
0.01-0.03% |  | C=CCc1ccc(O)c(OC)c1 [eugenol] |  |  |  | did not | clinically effective at improving the lesion during the first week of application | lower degree of hyperkeratosis and inflammatory cell infiltration than the positive control
